This experiment concerns L1210 leukemia ip in BDF1 mice, survival T/C. The experiment in a line: NCI In Vivo Anticancer Drug Screen. Data for tumor model L1210 Leukemia (intraperitoneal) in B6D2F1 (BDF1) mice. Particulars: endpoint: mean survival time, higher = longer survival. Summed up:
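Survival endpoint. Drug-treated group vs vehicle group, expressed as T divided by C. Tumor passaged by transplantation.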

Where [1] appears, read: dose: 100.0 mg/kg/injection, schedule: Q01DX001 (ip), vehicle: carboxymethylcellulose (CMC).
Where [2] appears, read: dose: 400.0 mg/kg/injection, schedule: Q01DX001 (ip), vehicle: carboxymethylcellulose (CMC).
Where [3] appears, read: dose: 100.0 mg/kg/injection, schedule: Q01DX009 (ip), vehicle: Klucel (hydroxypropylcellulose) (HPC).
Setting [4] is: dose: 100.0 mg/kg/injection, schedule: Q04DX003 (ip), vehicle: Klucel (hydroxypropylcellulose) (HPC).
The mark [5] stands for this setting: dose: 200.0 mg/kg/injection, schedule: Q01DX009 (ip), vehicle: Klucel (hydroxypropylcellulose) (HPC).
[6] abbreviates: dose: 200.0 mg/kg/injection, schedule: Q04DX003 (ip), vehicle: Klucel (hydroxypropylcellulose) (HPC).
Setting [7] is: dose: 400.0 mg/kg/injection, schedule: Q01DX009 (ip), vehicle: Klucel (hydroxypropylcellulose) (HPC).
The mark [8] stands for this setting: dose: 400.0 mg/kg/injection, schedule: Q04DX003 (ip), vehicle: Klucel (hydroxypropylcellulose) (HPC).
Where [9] appears, read: dose: 100.0 mg/kg/injection, schedule: Q01DX009 (ip), vehicle: saline with Tween-80.
Setting [10] is: dose: 100.0 mg/kg/injection, schedule: Q04DX003 (ip), vehicle: saline with Tween-80.
The mark [11] stands for this setting: dose: 200.0 mg/kg/injection, schedule: Q01DX009 (ip), vehicle: saline with Tween-80.
Setting [12] is: dose: 200.0 mg/kg/injection, schedule: Q04DX003 (ip), vehicle: saline with Tween-80.
The mark [13] stands for this setting: dose: 100.0 mg/kg/injection, schedule: Q01DX001 (ip), vehicle: saline with Tween-80.
Setting [14] is: dose: 200.0 mg/kg/injection, schedule: Q01DX001 (ip), vehicle: saline with Tween-80.

Values joined by “and” are separate entries in the source; they are usually repeats but may differ in a detail not shown here. Equal entries are not always repeated. Inconclusive results and toxic doses are left out.

Consider `CCCCCOC(=O)c1cccc2c1-c1ccccc1C2=O`, for which the T/C reads like this: (dose: 100.0 mg/kg/injection, schedule: Q01DX001 (ip), vehicle: other) 93 % of control; (dose: 200.0 mg/kg/injection, schedule: Q01DX001 (ip), vehicle: other) 98 % of control; (dose: 400.0 mg/kg/injection, schedule: Q01DX001 (ip), vehicle: other) 93 % of control.
For `[CH3][Sn]([CH3])([CH3])[O]C(=O)CCl`, the T/C was 97 % of control (dose: 0.78 mg/kg/injection, schedule: Q01DX009 (ip), vehicle: Klucel (hydroxypropylcellulose) (HPC)); 97 % of control (dose: 0.78 mg/kg/injection, schedule: Q04DX002 (ip), vehicle: Klucel (hydroxypropylcellulose) (HPC)); 87 % of control (dose: 1.56 mg/kg/injection, schedule: Q01DX009 (ip), vehicle: Klucel (hydroxypropylcellulose) (HPC)); 93 % of control (dose: 1.56 mg/kg/injection, schedule: Q04DX002 (ip), vehicle: Klucel (hydroxypropylcellulose) (HPC)); 93 % of control (dose: 3.12 mg/kg/injection, schedule: Q04DX002 (ip), vehicle: Klucel (hydroxypropylcellulose) (HPC)).
For the compound `CCCCCCOB(OCCCCCC)OCCCCCC`, the T/C by setting is: (dose: 50.0 mg/kg/injection, schedule: Q01DX001 (ip), vehicle: carboxymethylcellulose (CMC)) 107 % of control; (dose: 88.0 mg/kg/injection, schedule: Q01DX001 (ip), vehicle: carboxymethylcellulose (CMC)) 97 % of control and 98 % of control; under setting [1], 102 % of control; (dose: 133.0 mg/kg/injection, schedule: Q01DX001 (ip), vehicle: carboxymethylcellulose (CMC)) 96 % of control and 103 % of control; (dose: 300.0 mg/kg/injection, schedule: Q01DX001 (ip), vehicle: carboxymethylcellulose (CMC)) 93 % of control and 94 % of control; under setting [2], 105 % of control.
With `CCc1ccc(NC(=O)Nc2cccc3ccccc23)cc1`, the T/C reads like this: under setting [3], 87 % of control; under setting [4], 98 % of control; under setting [5], 90 % of control; under setting [6], 90 % of control; under setting [7], 92 % of control; under setting [8], 96 % of control.
`O=C(O)Cn1c(C(F)(F)F)nc2nc(Cl)c(Cl)nc21`: the T/C is 89 % of control under setting [9]; 94 % of control under setting [10]; 100 % of control under setting [11]; 94 % of control under setting [12]; 92 % of control (dose: 400.0 mg/kg/injection, schedule: Q01DX009 (ip), vehicle: saline with Tween-80); 97 % of control (dose: 400.0 mg/kg/injection, schedule: Q04DX003 (ip), vehicle: saline with Tween-80).
As to `CCSC1C(OC(C)=O)OC(C(COC(C)=O)OC(C)=O)C1OC(C)=O` (stereo unspecified), the T/C was 96 % of control (dose: 100.0 mg/kg/injection, schedule: Q04DX003 (ip), vehicle: other); 96 % of control (dose: 200.0 mg/kg/injection, schedule: Q04DX003 (ip), vehicle: other); 96 % of control (dose: 400.0 mg/kg/injection, schedule: Q04DX003 (ip), vehicle: other).
For the compound `CCC(C)(C(=O)NO)c1ccccc1` (stereo unspecified), the T/C under setting [13] is 110 % of control and the T/C under setting [14] was 101 % of control.
Consider `O=C(Nc1ccc(C2=NCCCN2)cc1)c1ccc(C(=O)Nc2ccc(C3=NCCCN3)cc2)nc1`, for which the T/C (dose: 1.5 mg/kg/injection, schedule: Q01DX Z (ip), vehicle: water) is 122 % of control; the T/C (dose: 3.0 mg/kg/injection, schedule: Q01DX Z (ip), vehicle: water) is 114 % of control; the T/C (dose: 3.0 mg/kg/injection, schedule: Q01DX Z (oral), vehicle: water) is 97 % of control; the T/C (dose: 6.0 mg/kg/injection, schedule: Q01DX Z (ip), vehicle: water) is 172 % of control; the T/C (dose: 6.25 mg/kg/injection, schedule: Q01DX Z (oral), vehicle: water) is 95 % of control; the T/C (dose: 7.5 mg/kg/injection, schedule: Q01DX001 (ip), vehicle: water) is 118 % of control. Besides, the T/C (dose: 12.5 mg/kg/injection, schedule: Q01DX Z (oral), vehicle: water) was 89 % of control and the T/C (dose: 25.0 mg/kg/injection, schedule: Q01DX Z (oral), vehicle: water) was 91 % of control.
`O=C(O)C1C2CC3C(C2)C31.[Ag]` (stereo unspecified): the T/C (dose: 20.0 mg/kg/injection, schedule: Q01DX009 (ip), vehicle: Klucel (hydroxypropylcellulose) (HPC)) is 91 % of control; the T/C (dose: 20.0 mg/kg/injection, schedule: Q04DX003 (ip), vehicle: Klucel (hydroxypropylcellulose) (HPC)) was 93 % of control; the T/C (dose: 40.0 mg/kg/injection, schedule: Q04DX003 (ip), vehicle: Klucel (hydroxypropylcellulose) (HPC)) was 89 % of control.
For `CCCSc1nccc2n[nH]nc12`, the T/C is, setting by setting: (dose: 50.0 mg/kg/injection, schedule: Q01DX009 (ip), vehicle: saline with Tween-80) 95 % of control; (dose: 50.0 mg/kg/injection, schedule: Q04DX003 (ip), vehicle: saline with Tween-80) 98 % of control; under setting [13], 90 % of control; under setting [9], 93 % of control; under setting [10], 96 % of control; under setting [14], 95 % of control. The T/C reads like this: under setting [11], 95 % of control; under setting [12], 100 % of control.
`C=CCc1c(C)ccc(C)c1OC`: the T/C by setting is: under setting [3], 97 % of control; under setting [4], 107 % of control; under setting [5], 95 % of control; under setting [6], 102 % of control; under setting [7], 97 % of control; under setting [8], 102 % of control.
Take `NC(=S)N/N=C/c1cc(Cl)ccc1O`: the T/C reads like this: under setting [1], 94 % of control; (dose: 200.0 mg/kg/injection, schedule: Q01DX001 (ip), vehicle: carboxymethylcellulose (CMC)) 100 % of control; under setting [2], 96 % of control.
Regarding `Nc1n[nH]c(N)n1.[Pt]`, the T/C is 102 % of control (dose: 50.0 mg/kg/injection, schedule: Q01DX009 (ip), vehicle: saline); 97 % of control (dose: 50.0 mg/kg/injection, schedule: Q04DX003 (ip), vehicle: saline); 102 % of control (dose: 100.0 mg/kg/injection, schedule: Q01DX009 (ip), vehicle: saline); 102 % of control (dose: 100.0 mg/kg/injection, schedule: Q04DX003 (ip), vehicle: saline); 100 % of control (dose: 200.0 mg/kg/injection, schedule: Q04DX003 (ip), vehicle: saline).
As for `CC(C)CCCCCOC(N)=O`, the T/C was 96 % of control under setting [3], 103 % of control under setting [5] and 102 % of control under setting [7].
For `C=CCSc1ncnc2c1ncn2C1OC(CO)C(O)C1O` (stereo unspecified), the T/C runs as follows: (dose: 25.0 mg/kg/injection, schedule: Q01DX Z (ip), vehicle: saline) 109 % of control and 120 % of control; (dose: 30.0 mg/kg/injection, schedule: Q01DX Z (ip), vehicle: saline) 106 % of control; (dose: 45.0 mg/kg/injection, schedule: Q01DX Z (ip), vehicle: saline) 108 % of control; (dose: 78.0 mg/kg/injection, schedule: Q01DX001 (ip), vehicle: carboxymethylcellulose (CMC)) 112 % of control; (dose: 99.0 mg/kg/injection, schedule: Q01DX Z (ip), vehicle: saline) 162 % of control; under setting [1], 115 % of control. Also, the T/C was 166 % of control (dose: 100.0 mg/kg/injection, schedule: Q01DX Z (ip), vehicle: saline); 123 % of control (dose: 118.0 mg/kg/injection, schedule: Q01DX001 (ip), vehicle: carboxymethylcellulose (CMC)); 170 % of control and 181 % of control (dose: 151.0 mg/kg/injection, schedule: Q01DX Z (ip), vehicle: saline); 93 % of control (dose: 200.0 mg/kg/injection, schedule: Q01DX009 (ip), vehicle: carboxymethylcellulose (CMC)); 150 % of control (dose: 200.0 mg/kg/injection, schedule: Q01DX Z (ip), vehicle: saline); 150 % of control (dose: 266.0 mg/kg/injection, schedule: Q01DX001 (ip), vehicle: carboxymethylcellulose (CMC)). In addition, the T/C by setting is: (dose: 300.0 mg/kg/injection, schedule: Q01DX Z (ip), vehicle: saline) 96 % of control; (dose: 338.0 mg/kg/injection, schedule: Q01DX Z (ip), vehicle: saline) 111 % of control.

The values above are taken from PubChem BioAssay AID248 (DTP/NCI, 2004).
